According to PMC7112168 (PLoS Pathogens, 2020):

Target: T1, PelD^Bc (PelD^Bc150-407; also PelD^Bc170-403)
T1 construct: gene BCE_5583
Settings: 20 mM HEPES pH 8.0, 150 mM NaCl, 5% glycerol, 1 mM DTT; 25 μM protein, 450 μM c-di-GMP in syringe; single-site model; proposed I-site (RxxD)

**Q.** Which Kd does the source give for `Nc1nc2c(ncn2[C@@H]2O[C@@H]3COP(=O)(O)O[C@H]4[C@@H](O)[C@H](n5cnc6c(=O)[nH]c(N)nc65)O[C@@H]4COP(=O)(O)O[C@H]3[C@H]2O)c(=O)[nH]1` [c-di-GMP] here?
**A.** 103 ± 14 nM
